Measured values reported in patent US11547681B2, “N-acylethanolamide derivatives and uses thereof” (ELIEM THERAPEUTICS, INC., priority 2016, dated 2023).

How the values were obtained:
[1] = in vitro; conditions: male, Sprague-Dawley, rat; for Concentration (μM) of analyte PEA, 0 min / Concentration (μM) of analyte PEA, 10 min / Concentration (μM) of analyte PEA, 20 min / Concentration (μM) of analyte PEA, 30 min / Concentration (μM) of analyte PEA, 60 min / % Remaining of Initial (n = 1), 0 min / % Remaining of Initial (n = 1), 10 min / % Remaining of Initial (n = 1), 20 min / % Remaining of Initial (n = 1), 30 min / % Remaining of Initial (n = 1), 60 min: 1 μM; for % Remaining of Initial (n = 1), 0 min: s9, 0 h; for % Remaining of Initial (n = 1), 10 min: s9, 10 min; for % Remaining of Initial (n = 1), 20 min: s9, 20 min; for % Remaining of Initial (n = 1), 30 min: s9, 0.5 h; for % Remaining of Initial (n = 1), 60 min: s9, 1 h; for microsomal CLint at 1 μM: s9, CLint (mL/min/mg protein); for half-life at 1 μM: s9, Half-life (min)
Method: The reaction mixture, minus cofactors, was prepared as described below. The test article was added into the reaction mixture at a final concentration of 1 μM. […] An aliquot of the reaction mixture (without cofactor cocktail) was equilibrated in a shaking water bath at 37° C. for 3 minutes. The reaction was initiated by the addition of cofactor cocktail, and the mixture was incubated in a shaking water bath at 37° C. Aliquots (100 μL) were withdrawn at 0, 10, 20, 30, and 60 minutes. All samples were immediately combined with 400 uL of icecold 50/50 acetonitrile/H2O containing 0.1% formic acid and internal standard to terminate the reaction. The samples were then mixed and centrifuged to precipitate proteins. Calibration standards were prepared in matched matrix. All samples and standards were assayed by LC-MS/MS using electrospray ionization for both the dosed prodrug I-9 and the expected drug (PEA). Analytical conditions are outlined in Appendix 4-1. The test article concentration at each time point was compared to the test article concentration at time 0 to determine the percent remaining at each time point. Half-lives were calculated using GraphPad software, fitting to single-phase exponential decay equation.
(§1) Reaction mixture, minus cofactors, was prepared as described below. Test article was added into the reaction mixture at a final concentration of 1 μM. […] An aliquot of the reaction mixture (without cofactor cocktail) was equilibrated in a shaking water bath at 37° C. for 3 minutes. The reaction was initiated by the addition of cofactor cocktail, and the mixture was incubated in a shaking water bath at 37° C. Aliquots (100 μL) were withdrawn at 0, 10, 20, 30, and 60 minutes. Test article samples were immediately combined with 300 μL of ice-cold acetonitrile containing 1% formic acid. Control samples were immediately combined with 400 μL of ice-cold 50/50 acetonitrile (ACN)/dH2O containing 0.1% formic acid and internal standard to terminate the reaction. Samples were then mixed and centrifuged to precipitate proteins. Calibration standards were prepared in matched matrix. Samples and standards were assayed by LC-MS/MS using electrospray ionization for both the dosed prodrug and the expected drug (PEA). Analytical conditions are outlined in Appendix 8-1. Test article concentration at each time point was compared to test article concentration at time 0 to determine the percent remaining at each time point. Halflives were calculated using GraphPad software, fitting to a single-phase exponential decay equation.
as §1, with “for 5” for “for 3”, “minutes. Reaction” for “minutes. The reaction”, “and” for “and the”, “both” for “both the”, “Appendix 10-1.” for “Appendix 8-1.”
Reaction mixture, minus cofactors, was prepared as described below.

[2] = in vitro; conditions: male, Beagle, dog; for Concentration (μM) of analyte PEA, 0 min / Concentration (μM) of analyte PEA, 10 min / Concentration (μM) of analyte PEA, 20 min / Concentration (μM) of analyte PEA, 30 min / Concentration (μM) of analyte PEA, 60 min / % Remaining of Initial (n = 1), 0 min / % Remaining of Initial (n = 1), 10 min / % Remaining of Initial (n = 1), 20 min / % Remaining of Initial (n = 1), 30 min / % Remaining of Initial (n = 1), 60 min: 1 μM; for % Remaining of Initial (n = 1), 0 min: s9, 0 h; for % Remaining of Initial (n = 1), 10 min: s9, 10 min; for % Remaining of Initial (n = 1), 20 min: s9, 20 min; for % Remaining of Initial (n = 1), 30 min: s9, 0.5 h; for % Remaining of Initial (n = 1), 60 min: s9, 1 h; for microsomal CLint at 1 μM: s9, CLint (mL/min/mg protein); for half-life at 1 μM: s9, Half-life (min)
Method: as §1
as §1, with “for 5” for “for 3”, “minutes. Reaction” for “minutes. The reaction”, “and” for “and the”, “both” for “both the”, “Appendix 10-1.” for “Appendix 8-1.”
Reaction mixture, minus cofactors, was prepared as described below. Test article was added into the reaction mixture at a final concentration of 1 μM. […] An aliquot of the reaction mixture (without cofactor cocktail) was equilibrated in a shaking water bath at 37° C. for 3 minutes. Reaction was initiated by the addition of cofactor cocktail, and the mixture was incubated in a shaking water bath at 37° C. Aliquots (100 μL) were withdrawn at 0, 10, 20, 30, and 60 minutes. Test article samples were immediately combined with 300 μL of ice-cold acetonitrile containing 1% formic acid. Control samples were immediately combined with 400 μL of ice-cold 50/50 acetonitrile (ACN)/dH2O containing 0.1% formic acid and internal standard to terminate the reaction. Samples were then mixed and centrifuged to precipitate proteins. Calibration standards were prepared in matched matrix. Samples and standards were assayed by LC-MS/MS using electrospray ionization for both dosed prodrug and expected drug (PEA). Analytical conditions are outlined in Appendix 13-1. Test article concentration at each time point was compared to test article concentration at time 0 to determine the percent remaining at each time point. Halflives were calculated using GraphPad software, fitting to a single-phase exponential decay equation.

Compound	Concentration (μM) of analyte PEA, 0 min [1] [µM]	Concentration (μM) of analyte PEA, 10 min [1] [µM]	Concentration (μM) of analyte PEA, 20 min [1] [µM]	Concentration (μM) of analyte PEA, 30 min [1] [µM]	Concentration (μM) of analyte PEA, 60 min [1] [µM]	% Remaining of Initial (n = 1), 0 min [1] [%]	% Remaining of Initial (n = 1), 10 min [1] [%]	% Remaining of Initial (n = 1), 20 min [1] [%]	% Remaining of Initial (n = 1), 30 min [1] [%]	% Remaining of Initial (n = 1), 60 min [1] [%]	Concentration (μM) of analyte PEA, 0 min [2] [µM]	Concentration (μM) of analyte PEA, 10 min [2] [µM]	Concentration (μM) of analyte PEA, 20 min [2] [µM]	Concentration (μM) of analyte PEA, 30 min [2] [µM]	Concentration (μM) of analyte PEA, 60 min [2] [µM]	% Remaining of Initial (n = 1), 0 min [2] [%]	% Remaining of Initial (n = 1), 10 min [2] [%]	% Remaining of Initial (n = 1), 20 min [2] [%]	% Remaining of Initial (n = 1), 30 min [2] [%]	% Remaining of Initial (n = 1), 60 min [2] [%]	further results
CCCCCCCCCCCCCCCC(=O)NCCOC(=O)CCC [Compound I-2]	0.69	0.63	0.60	0.52	0.52	100	35	<1.0	<1.0	<1.0	0.11	0.40	0.50	0.53	0.54	100	36	12	4.2	<1.0	microsomal CLint at 1 μM [1]: 123 µL/min/mg; half-life at 1 μM [1]: 5.6 min
CCCCCCCCCCCCCCCC(=O)NCCOC(=O)CCC(=O)OCC(COC(=O)CCCCCCC)OC(=O)CCCCCCC (stereo not shown) [Compound I-3, PEA-Succinate-Glycerol-Di-Caprylic]	0	0.024	0.037	0.047	0.073	100	53	46	42	31	0.015	0.23	0.28	0.29	0.50	100	46	46	34	18	microsomal CLint at 1 μM [1]: 26.8 µL/min/mg; half-life at 1 μM [1]: 26 min; microsomal CLint at 1 μM [2]: 36.8 µL/min/mg; half-life at 1 μM [2]: 19 min
CC/C=C\C/C=C\C/C=C\C/C=C\C/C=C\CCCC(=O)OCCNC(=O)CCCCCCCCCCCCCCC [Compound I-5]	0.029	0.062	0.099	0.11	0.18	100	57	48	46	44	0.13	0.26	0.25	0.25	0.28	100	50	48	36	36	microsomal CLint at 1 μM [1]: 18.2 µL/min/mg; half-life at 1 μM [1]: 38 min; microsomal CLint at 1 μM [2]: 26.3 µL/min/mg; half-life at 1 μM [2]: 26 min
CCCCC/C=C\C/C=C\CCCCCCCC(=O)OCCNC(=O)CCCCCCCCCCCCCCC [Compound I-6]	0.069	0.088	0.094	0.10	0.11	100	78	92	79	59	0.26	0.42	0.38	0.35	0.36	100	54	53	45	38	microsomal CLint at 1 μM [1]: < 11.6 µL/min/mg; microsomal CLint at 1 μM ([1]; calculated value in parentheses): 7.65 µL/min/mg; half-life at 1 μM [1]: > 60 min; half-life at 1 μM ([1]; calculated half-life in parentheses): 91 min; microsomal CLint at 1 μM [2]: 20.1 µL/min/mg; half-life at 1 μM [2]: 34 min
CCCCCCCCCCCCCCCC(=O)NCCOC(=O)CCC(=O)OC[C@H]1O[C@@](CO)(O[C@H]2O[C@H](CO)[C@@H](O)[C@H](O)[C@H]2O)[C@@H](O)[C@@H]1O [Compound I-7]	0.042	0.24	0.35	0.47	0.60	100	60	37	31	13	0.38	0.36	0.55	0.51	0.50	100	1.1	<1.0	<1.0	<1.0	microsomal CLint at 1 μM [2]: 452 µL/min/mg; half-life at 1 μM [2]: 1.5 min
